Experiments:
[1] = tested on: L858R/T790M EGFR mutant kinase; set-up: method as in PMID 27251290; details: cited from earlier work
murine Abcg2 = target: T1, murine Abcg2 (Mus musculus, UniProt Q7TMS5); experiment: Transepithelial transport of EAI045, MDCK-II cells transduced with murine Abcg2; format: in vitro ADME; details: for efflux ratio r (relative transport ratio): EAI045 5 μM
T1 construct: expressed in transfected cells; host or cells: MDCK-II cells, stably transduced, generated in the authors' institute
T1 sequence (Q7TMS5 1-657): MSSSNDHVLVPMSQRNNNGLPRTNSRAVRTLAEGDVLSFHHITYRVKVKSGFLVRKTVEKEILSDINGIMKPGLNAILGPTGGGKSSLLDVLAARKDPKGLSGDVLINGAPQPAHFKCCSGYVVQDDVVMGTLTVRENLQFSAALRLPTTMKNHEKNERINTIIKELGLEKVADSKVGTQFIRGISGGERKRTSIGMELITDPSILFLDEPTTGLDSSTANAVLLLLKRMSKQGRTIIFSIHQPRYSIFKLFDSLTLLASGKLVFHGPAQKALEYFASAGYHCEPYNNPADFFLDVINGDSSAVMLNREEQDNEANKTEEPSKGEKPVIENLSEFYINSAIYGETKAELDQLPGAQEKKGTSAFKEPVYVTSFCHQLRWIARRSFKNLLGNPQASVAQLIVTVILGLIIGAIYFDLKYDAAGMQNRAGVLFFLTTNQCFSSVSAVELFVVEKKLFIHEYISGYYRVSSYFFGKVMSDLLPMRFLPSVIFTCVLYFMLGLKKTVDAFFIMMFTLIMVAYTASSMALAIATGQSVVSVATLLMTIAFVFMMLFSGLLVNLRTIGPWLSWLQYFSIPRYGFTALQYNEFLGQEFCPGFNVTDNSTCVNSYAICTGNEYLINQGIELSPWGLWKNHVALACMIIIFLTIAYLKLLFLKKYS
Procedure: Transport of EAI045 (5 μM) across epithelia was tested using cell layers of Madin–Darby Canine Kidney (MDCK-II) cells and derived clones expressing hABCB1, hABCG2, or mAbcg2 cDNA. […] In cells overexpressing hABCB1, there was clear transport of EAI045 in the apical direction (r = 5.5, Figure 1C). […] To evaluate the interaction between hABCG2 and mAbcg2 and EAI045, zosuquidar (5 μM) was added to inhibit any endogenous canine ABCB1. In cells overexpressing hABCG2, the BA transport of EAI045 was somewhat increased relative to the AB transport, resulting in an efflux ratio of 1.4 (Figure 1E).
Figure 1 In vitro transepithelial transport of EAI045 (5 μM) using MCDK-II parental cells (A,B) or transduced with human ABCB1 (C,D), human ABCG2 (E,F), or murine Abcg2 (G,H) cDNA. At t = 0 EAI045 was added in the donor compartment (either apical or basolateral). At 1, 2, and 4 h EAI045 was quantified in the acceptor compartment and the cumulative total transported amount per well was plotted (n = 3). Zosuquidar (5 μM) was added to inhibit the human and/or the endogenous ABCB1, while Ko143 (5 μM) was added to inhibit the human or murine ABCG2. r, relative transport ratio. […] Points, mean; bars, SD. TEXT PRINTED IN THE PICTURE: (A) no label printed: Parental: r = 1.7 | (B) no label printed: Parental + Zos.: r = 1.1 | (C) no label printed: hABCB1: r = 5.5 | (D) no label printed: hABCB1 + Zos.: r = 1.3 | (E) no label printed: hABCG2 + Zos.: r = 1.4 | (F) no label printed: hABCG2 + Zos. + Ko143: r = 1.1 | (G) no label printed: mAbcg2 + Zos.: r = 1.8 | (H) no label printed: mAbcg2 + Zos. + Ko143: r = 1.4
Madin–Darby Canine Kidney (MDCK-II) cells (ECACC 00062107) stably transduced with human (h) ABCB1, hABCG2, or mouse (m) Abcg2 cDNA were generated in our institute between 1998 and 2005. […] In short, cells were allowed to grow an intact monolayer in 3 days, which was monitored with transepithelial electrical resistance (TEER) measurements, both before and after the transport phase. […] Proper functionality of these cell lines was monitored by continual testing with a variety of drug substrates.

In the case of O=C(Nc1nccs1)C(c1cc(F)ccc1O)N1Cc2ccccc2C1=O (stereo not shown) [EAI045], the “inhibition of the EGFR mutant relative to wild-type EGFR” value [1] is listed as “most selective inhibition”, the “efflux ratio r (relative transport ratio)” value (murine Abcg2; mAbcg2 + zosuquidar 5 μM) is listed as 1.8 and the “efflux ratio r (relative transport ratio)” value (murine Abcg2; mAbcg2 + zosuquidar 5 μM + Ko143 5 μM) is listed as 1.4. The “transport by mouse Abcg2” value (murine Abcg2; in vitro) was “at best slightly transported”.
